Source: publication PMC9965018, “Marine-Derived Natural Product HDYL-GQQ-495 Targets P62 to Inhibit Autophagy” (Marine Drugs, 2023)

Biological target: T1, P62 (P62/SQSTM1) (Homo sapiens, UniProt Q13501)
T1 construct: MBP-P62 (purified recombinant)
Experiment: microscale thermophoresis (MST) with labelled MBP-P62, MBP as negative control; also induces polymerization of purified P62
Assay type: binding

T1 sequence (Q13501 2-440): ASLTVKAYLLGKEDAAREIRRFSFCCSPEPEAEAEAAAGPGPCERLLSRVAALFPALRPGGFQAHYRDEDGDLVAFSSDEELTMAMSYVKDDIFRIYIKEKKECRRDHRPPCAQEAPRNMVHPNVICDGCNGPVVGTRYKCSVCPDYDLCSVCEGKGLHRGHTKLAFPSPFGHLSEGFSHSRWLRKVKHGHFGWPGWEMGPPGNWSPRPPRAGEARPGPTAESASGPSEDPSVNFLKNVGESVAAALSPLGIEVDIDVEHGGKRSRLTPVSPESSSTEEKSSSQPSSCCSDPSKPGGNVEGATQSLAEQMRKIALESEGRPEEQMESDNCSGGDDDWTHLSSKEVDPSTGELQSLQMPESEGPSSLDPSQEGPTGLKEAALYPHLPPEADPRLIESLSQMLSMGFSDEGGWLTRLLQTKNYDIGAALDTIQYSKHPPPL

O=C(c1ccc(OCCN2CCCCC2)cc1)c1c(O)nc2ccc(O)c3c2c1-c1cccc(O)c1C3=O [HDYL-GQQ-495]
Kd: 11.2 ± 4.07 µM
